Data published in US20240002520A1, “TREATMENT OF CASTLEMAN DISEASE” (THE TRUSTEES OF THE UNIVERSITY OF PENNSYLVANIA, priority 2020, published 2024).

What was measured:
[1] = test system: iMCD; details: literature case reports; cited from earlier work
[2] = test system: iMCD patients; details: cited from earlier work
[3] = test system: iMCD patients; experiment: Siltuximab phase II study (NCT01024036): durable symptomatic and tumor response criteria; format: in vivo, human
Excerpt: Clinical and laboratory data were collected at the time of sample draw for iMCD patients. To assess disease activity, we adapted a previously published disease activity score using C-reactive protein, hemoglobin, and albumin.

[4] = test system: CXCL13; experiment: Serum CXCL13 levels (absolute quantification, RBM) in validation cohort, siltuximab phase I study; format: in vivo, human
Excerpt: Samples collected in real-world practice were included to better represent the full spectrum of iMCD. We obtained samples from 60 patients with diseases that overlap in clinical and pathological presentation with iMCD, including HHV8-associated MCD (N=20), HL (N=20), and RA (N=20), which are caused by viral, neoplastic, and autoimmune mechanisms, respectively, and 44 healthy individuals. […] All serum samples from the phase I and the phase II studies were collected and processed following respective standardized protocols.
For the 23 samples in the validation cohort, Rules Based Medicine (RBM) DiscoveryMap v1.0 was used to measure 190 serum analytes by a microsphere-based, multiplexed immunoassay platform.^18 RBM values were converted to standardized units and log 2 transformed. Of 190 proteins measured by RBM, 154 can be mapped to targets in the Somalogic platform, and 140 remained for analysis after filtering out low-quality targets on both platforms.
A […] was generated to identify 17% as the optimal reduction in CXCL13 levels to maximize sensitivity and specificity of this indicator (FIGS. 7 & 14). Specifically, if a patient has a 17% or greater reduction in CXCL13 levels, then the patient is highly likely to respond (FIGS. 15-16, Table 4). The proteins from patients in the discovery cohort described supra were quantified using a relative quantification while the protein quantification in the validation described in Table 4 utilized absolute quantification.

[5] = test system: CXCL13; experiment: Serum proteomics (SomaLogic SOMAscan) during siltuximab therapy, phase II study; format: in vivo, human
Protocol: Methods. Clinical data and serum samples were collected as part of NCT01024036. We measured serum protein analytes in the 52 subjects who were treated with anti-IL6 therapy, as well as the 26 patients in the control arm, at day 1, day 8, and day 64 of therapy (infusions administered every 21 days). Serum samples from 44 healthy donors were also analyzed. Of the 1,305 analytes measured using SomaLogic SOMAscan, 1,178 passed QC and were included in analyses. Each analyte was log 2 transformed and capped at the 2.5th and 97.5th percentiles. Response to anti-IL6 therapy was determined by independent review in NCT01024036. Data processing was performed using the Medidata Rave Omics machine learning platform and R v3.4.4.
Linear mixed effects models were used to detect whether kinetic changes in protein expression were associated with anti-IL6 response. Upon running the full model with the selected covariates, the p-values of the interaction between time point and response were used to test for differences between responders and nonresponders.
A separate model was fitted using each protein, and False Discovery Rates (FDR) were estimated by the Benjamini-Hochberg method with alpha <0.05.

[6] = test system: CD19+CD27-IgD+B cells; experiment: In vitro treatment of flow-sorted iMCD patient B cells, RNA sequencing and geneset enrichment analysis of Hallmark pathways; format: cell-based, human; details: serum plus rhCXCL13 compared to serum only
Protocol: An in vitro experiment was performed that included flow sorting CD19+CD27-IgD+B cells from peripheral blood mononuclear cells (PBMCs) derived from an iMCD patient and treating the CD19+CD27-IgD+B cells with either (A) serum only, (B) serum plus recombinant human CXCL13 (rhCXCL13) to assess the effects of CXCL13 on iMCD patient B cells, or (C) serum, rhCXCL13, and anti-CXCL13 (anti-CXCL13) antibody to assess the effects of this blocking antibody. Each of these samples had geneset enrichment analysis performed of the Hallmark pathways on RNA sequencing data.

[7] = Non-Responders (N = 13), Day 43

C=CC[C@@H]1/C=C(\C)C[C@H](C)C[C@H](OC)[C@H]2O[C@@](O)(C(=O)C(=O)N3CCCC[C@H]3C(=O)O[C@H](/C(C)=C/[C@@H]3CC[C@@H](O)[C@H](OC)C3)[C@H](C)[C@@H](O)CC1=O)[C@H](C)C[C@@H]2OC [tacrolimus]
reported activity in iMCD [1]: potential activity

siltuximab
patients who met response criteria ([2]; Phase II study NCT01024036, assessed after a minimum of 48 weeks): one-third | iMCD patients who did not meet primary response criteria ([2]; siltuximab phase II registrational study): 66% | patients with lymph node response by Cheson criteria who also achieved durable symptomatic response [3]: 18 of 20 | CXCL13, Median (IQR) ([4]; Non-Responders (N = 13), Day 22/29, baseline 155 (79, 293)): 249 (73.1, 466) pg/ml | CXCL13, Mean (SD) ([4]; Non-Responders (N = 13), Day 22/29, baseline 234 (240)): 337 (381) pg/ml | CXCL13, Mean (SD) [4, 7]: 229.1 (190.3) pg/ml | CXCL13, Median (IQR) [4, 7]: 218 (62, 371) pg/ml | CXCL13, Median (IQR) ([4]; Responders (N = 10), Day 22/29, baseline 116 (57, 258)): 41.1 (23.5, 62) pg/ml | CXCL13, Mean (SD) ([4]; Responders (N = 10), Day 22/29, baseline 241 (361)): 71.5 (94.5) pg/ml | CXCL13, Mean (SD) ([4]; Responders (N = 10), Day 43): 94.8 (70.6) pg/ml | CXCL13, Median (IQR) ([4]; Responders (N = 10), Day 43): 94.4 (29.6, 147) pg/ml | CXCL13 levels in non-responders ([5]; by day 64): remained elevated | CXCL13 levels in siltuximab responders ([5]; by day 64): decreased to levels approaching the healthy donor range | 9 serum proteins (IgA, BCMA, NPS-PLA2, ART, IL-18 BPa, CD5L, b2-Microglobulin, CXCL13, NRP1) in responders compared to non-responders ([5]; day 8, seven days after first siltuximab administration): significantly decreased

B1: rhCXCL13: recombinant human CXCL13 (protein, UniProt O43927 23-109, looked up)
C-X-C motif chemokine 13: VLEVYYTSLRCRCVQESSVFIPRRFIDRIQILPRGNGCPRKEIIVWKKNKSIVCVDPQAEWIQRMMEVLRKRSSSTLPVPVFKRKIP
pathways previously found up-regulated in iMCD (IL6-JAK-STAT3, mTORC1, Interferon alpha response, interferon gamma response, complement, TNFα signaling via NFKb) [6]: up-regulated
